Results: patent publication US9334246B2, “Substituted triazines for malaria treatment and chemoprophylaxis” (The United States of America, as represented by the …, priority 2013, dated 2016)
Values after ≈ are worked out from the molar mass of the structure shown.

Key:
P. falciparum D6 = test: Malaria SYBR Green Fluorescence Assay, D6 strain; type: cell-based, Plasmodium falciparum
P. falciparum C235 = test: Malaria SYBR Green Fluorescence Assay, C235 strain; type: cell-based, Plasmodium falciparum
[1] = molecular target: hERG potassium ion channel (Homo sapiens, UniProt Q12809); test: hERG patch clamp assay (% inhibition at 10 μM); settings: for hERG (% inhibition): 10 μM
hERG potassium ion channel, sequence (Q12809 whole entry): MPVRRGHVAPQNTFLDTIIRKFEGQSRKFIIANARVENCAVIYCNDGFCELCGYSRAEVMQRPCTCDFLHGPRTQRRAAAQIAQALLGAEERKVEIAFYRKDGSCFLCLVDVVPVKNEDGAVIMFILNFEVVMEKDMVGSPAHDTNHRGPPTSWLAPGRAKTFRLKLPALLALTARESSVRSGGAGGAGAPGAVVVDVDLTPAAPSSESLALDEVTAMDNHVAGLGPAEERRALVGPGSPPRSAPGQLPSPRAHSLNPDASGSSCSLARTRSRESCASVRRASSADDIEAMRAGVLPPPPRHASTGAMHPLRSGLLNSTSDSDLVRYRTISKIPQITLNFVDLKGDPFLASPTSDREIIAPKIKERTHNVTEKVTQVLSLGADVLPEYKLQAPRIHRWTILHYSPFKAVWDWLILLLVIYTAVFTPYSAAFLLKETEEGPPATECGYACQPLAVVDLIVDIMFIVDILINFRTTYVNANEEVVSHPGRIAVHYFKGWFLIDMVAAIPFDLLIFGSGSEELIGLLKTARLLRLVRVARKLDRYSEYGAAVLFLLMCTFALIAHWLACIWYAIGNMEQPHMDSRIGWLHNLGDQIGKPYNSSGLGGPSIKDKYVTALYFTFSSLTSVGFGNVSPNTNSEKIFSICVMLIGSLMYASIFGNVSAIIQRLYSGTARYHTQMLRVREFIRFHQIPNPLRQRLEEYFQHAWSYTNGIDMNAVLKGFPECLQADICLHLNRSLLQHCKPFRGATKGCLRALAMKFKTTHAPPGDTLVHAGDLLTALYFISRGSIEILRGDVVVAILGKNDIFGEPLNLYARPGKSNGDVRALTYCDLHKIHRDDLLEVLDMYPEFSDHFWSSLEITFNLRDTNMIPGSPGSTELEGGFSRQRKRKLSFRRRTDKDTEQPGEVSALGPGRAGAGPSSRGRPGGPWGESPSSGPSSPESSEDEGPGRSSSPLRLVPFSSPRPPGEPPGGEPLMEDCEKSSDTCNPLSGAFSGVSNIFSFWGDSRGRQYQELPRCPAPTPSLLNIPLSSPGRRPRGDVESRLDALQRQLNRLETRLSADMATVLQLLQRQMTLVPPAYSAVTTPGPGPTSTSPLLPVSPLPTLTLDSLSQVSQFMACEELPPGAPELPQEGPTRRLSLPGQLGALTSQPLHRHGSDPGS

P. falciparum W2 = test: Malaria SYBR Green Fluorescence Assay, W2 strain; type: cell-based, Plasmodium falciparum
[2] = % inhibition at 10 μM, patch clamp
[3] = Plasmodium falciparum, SYBR Green Assay

Compound: CCN(CC)CCNc1nc(-c2ccc3ccccc3c2)nc(C(Cl)(Cl)Cl)n1 [Cmpd 220]
- D6 (P. falciparum D6; SYBR Green Assay): 40 ng/mL
- C235 (P. falciparum C235; SYBR Green Assay): 12 ng/mL
- hERG [1, 2]: 66%
- W2 (P. falciparum W2; SYBR Green Assay): 8 ng/mL

Compound: CN1CCC(Nc2nc(-c3ccccc3)nc(C(Cl)(Cl)Cl)n2)CC1 [Cmpd 237]
- D6 (P. falciparum D6; SYBR Green Assay): 47 ng/mL
- C235 (P. falciparum C235; SYBR Green Assay): 31 ng/mL
- hERG [1, 2]: 107%
- W2 (P. falciparum W2; SYBR Green Assay): 32 ng/mL

Compound: CN1CCN(c2nc(-c3ccc(-c4ccccc4)cc3)nc(C(Cl)(Cl)Cl)n2)CC1 [Cmpd 298]
- D6 (P. falciparum D6; SYBR Green Assay): 62 ng/mL
- C235 (P. falciparum C235; SYBR Green Assay): 87 ng/mL
- hERG [1, 2]: 10%
- W2 (P. falciparum W2; SYBR Green Assay): 33 ng/mL

Compound: CCN1CCC(CNc2nc(-c3ccc(-c4ccccc4)cc3)nc(C(Cl)(Cl)Cl)n2)CC1 [Cmpd 306]
- D6 (P. falciparum D6; SYBR Green Assay): 54 ng/mL
- C235 (P. falciparum C235; SYBR Green Assay): 87 ng/mL
- hERG [1, 2]: 38%
- W2 (P. falciparum W2; SYBR Green Assay): 30 ng/mL

Compound: NC1(CNc2nc(-c3cccc(C(F)(F)F)c3)nc(C(Cl)(Cl)Cl)n2)CCOCC1 [Cmpd 315]
- D6 (P. falciparum D6; SYBR Green Assay): 3 ng/mL
- C235 (P. falciparum C235; SYBR Green Assay): 8 ng/mL
- hERG [1, 2]: 36%
- W2 (P. falciparum W2; SYBR Green Assay): 1 ng/mL

Compound: CC1(C)CC(Nc2nc(-c3ccc(C(C)(C)C)cc3)nc(C(Cl)(Cl)Cl)n2)CC(C)(C)N1 [Cmpd 321]
- D6 (P. falciparum D6; SYBR Green Assay): 6 ng/mL
- C235 (P. falciparum C235; SYBR Green Assay): 11 ng/mL
- hERG [1, 2]: 11%
- W2 (P. falciparum W2; SYBR Green Assay): 3 ng/mL

Compound: COc1ncccc1Nc1nc(NC2CC(C)(C)NC(C)(C)C2)nc(C(Cl)(Cl)Cl)n1 [Cmpd 348]
- D6 (P. falciparum D6; SYBR Green Assay): 11 ng/mL
- C235 (P. falciparum C235; SYBR Green Assay): 18 ng/mL
- hERG [1, 2]: 96%
- W2 (P. falciparum W2; SYBR Green Assay): 9 ng/mL

Compound: CCC(N)(CC)CNc1nc(-c2ccc(Cl)cc2)nc(C(Cl)(Cl)Cl)n1 [Cmpd 356]
- D6 (SYBR Green Assay IC50) (P. falciparum D6): 3 ng/mL
- C235 (SYBR Green Assay IC50) (P. falciparum C235): 7 ng/mL
- hERG (% inhibition) [1]: 44%
- W2 (SYBR Green Assay IC50) (P. falciparum W2): 3 ng/mL

Compound: CCC(N)(CC)CNc1nc(-c2ccc(-c3ccccc3)cc2)nc(C(Cl)(Cl)Cl)n1 [Cmpd 364]
- D6 (SYBR Green Assay IC50) (P. falciparum D6): 3 ng/mL
- C235 (SYBR Green Assay IC50) (P. falciparum C235): 6 ng/mL
- hERG (% inhibition) [1]: 25%
- W2 (SYBR Green Assay IC50) (P. falciparum W2): 4 ng/mL

Compound: CCN(CC)CCNc1nc(Nc2ccc(OC(F)(F)F)cc2)nc(C(Cl)(Cl)Cl)n1 [Cmpd 374]
- D6 (SYBR Green Assay IC50) (P. falciparum D6): 2 ng/mL
- C235 (SYBR Green Assay IC50) (P. falciparum C235): 5 ng/mL
- hERG (% inhibition) [1]: 109%
- W2 (SYBR Green Assay IC50) (P. falciparum W2): 5 ng/mL

Compound: CCC(N)(CC)CNc1nc(-c2ccc3ccccc3c2)nc(C(Cl)(Cl)Cl)n1 [Cmpd 377]
- D6 (SYBR Green Assay IC50) (P. falciparum D6): 2 ng/mL
- C235 (SYBR Green Assay IC50) (P. falciparum C235): 8 ng/mL
- hERG (% inhibition) [1]: 25%
- W2 (SYBR Green Assay IC50) (P. falciparum W2): 6 ng/mL

Compound: Fc1ccc(-c2nc(NCCCN3CCCC3)nc(C(Cl)(Cl)Cl)n2)cc1 [Cmpd 381]
- D6 (SYBR Green Assay IC50) (P. falciparum D6): 5 ng/mL
- C235 (SYBR Green Assay IC50) (P. falciparum C235): 14 ng/mL
- hERG (% inhibition) [1]: 106%
- W2 (SYBR Green Assay IC50) (P. falciparum W2): 9 ng/mL

Compound: CN1CCCC1CCNc1nc(-c2ccc(F)cc2)nc(C(Cl)(Cl)Cl)n1 (stereo not shown) [Cmpd 382]
- D6 (SYBR Green Assay IC50) (P. falciparum D6): 17 ng/mL
- C235 (SYBR Green Assay IC50) (P. falciparum C235): 36 ng/mL
- hERG (% inhibition) [1]: 105%
- W2 (SYBR Green Assay IC50) (P. falciparum W2): 20 ng/mL

Compound: CCN1CCCC(Nc2nc(-c3ccc(F)cc3)nc(C(Cl)(Cl)Cl)n2)C1 (stereo not shown) [Cmpd 387]
- D6 (SYBR Green Assay IC50) (P. falciparum D6): 4 ng/mL
- C235 (SYBR Green Assay IC50) (P. falciparum C235): 13 ng/mL
- hERG (% inhibition) [1]: 108%
- W2 (SYBR Green Assay IC50) (P. falciparum W2): 7 ng/mL

Compound: Clc1ccc(-c2nc(NCCCCCN3CCCC3)nc(C(Cl)(Cl)Cl)n2)cc1 [Cmpd 561]
- D6 (SYBR Green Assay IC50) (P. falciparum D6): 39.67 ng/mL
- C235 (SYBR Green Assay IC50) (P. falciparum C235): 38.69 ng/mL
- hERG (% inhibition) [1]: 63%
- W2 (SYBR Green Assay IC50) (P. falciparum W2): 27.84 ng/mL

Compound: CC(C)(C)OC(=O)N1CC2CC1CN2c1nc(-c2ccc(S(C)(=O)=O)cc2)nc(C(Cl)(Cl)Cl)n1 (stereo not shown) [Compound 715, CC(C)(C)OC(═O)N1CC2CC1CN2c3nc(nc(n3)C(Cl)(Cl)Cl)c4ccc(cc4)S(═O)(═O)C]
- D6 (P. falciparum D6; SYBR Green Assay): 126 ng/mL
- C235 (P. falciparum C235; SYBR Green Assay): 185 ng/mL
- hERG ([1]; hERG activity as % inhibition): 19%
- W2 (P. falciparum W2; SYBR Green Assay): 63 ng/mL

Compound: CC(CNc1nc(-c2ccc(Cl)c(Cl)c2)nc(C(Cl)(Cl)Cl)n1)N(C)C (stereo not shown) [Example 1, N^1-(4-(3,4-dichlorophenyl)-6-(trichloromethyl)-1,3,5-triazin-2-yl)-N^2,N^2-dimethylpropane-1,2-diamine]
- IC50 (P. falciparum D6; [3]): 0.0416 µg/mL (≈ 0.0937 µM)
- IC50 (P. falciparum C235; [3]): 0.0367 µg/mL (≈ 0.0828 µM)
- hERG ([1]; hERG activity as % inhibition): 95%
- IC50 (P. falciparum W2; [3]): 0.0294 µg/mL (≈ 0.0663 µM)

Compound: CC(C)(C)c1ccc(cc1)c2nc(Nc3ccncc3)nc(n2)C(Cl)(Cl)Cl [Compound 739]
- D6 (P. falciparum D6; SYBR Green Assay): 23 ng/mL
- C235 (P. falciparum C235; SYBR Green Assay): 25 ng/mL
- hERG ([1]; hERG activity as % inhibition): 26%
- W2 (P. falciparum W2; SYBR Green Assay): 24 ng/mL

Compound: CC(CN(C)C)Nc1nc(Nc2cc(Cl)cc(Cl)c2)nc(n1)C(Cl)(Cl)Cl [Compound 639]
- D6 (SYBR Green Assay IC50) (P. falciparum D6): 13 ng/mL
- C235 (SYBR Green Assay IC50) (P. falciparum C235): 9 ng/mL
- hERG (% inhibition) [1]: 25%
- W2 (SYBR Green Assay IC50) (P. falciparum W2): 7 ng/mL

Compound: CC(CN(C)C)Nc1nc(Nc2ccc(Cl)c(Cl)c2)nc(n1)C(Cl)(Cl)Cl [Compound 640]
- D6 (SYBR Green Assay IC50) (P. falciparum D6): 8 ng/mL
- C235 (SYBR Green Assay IC50) (P. falciparum C235): 10 ng/mL
- hERG (% inhibition) [1]: 23%
- W2 (SYBR Green Assay IC50) (P. falciparum W2): 8 ng/mL

Compound: CCN1CCC(CC1)C(C)Nc2nc(Nc3cc(Cl)cc(Cl)c3)nc(n2)C(Cl)(Cl)Cl [Compound 645]
- D6 (SYBR Green Assay IC50) (P. falciparum D6): 79.11 ng/mL
- C235 (SYBR Green Assay IC50) (P. falciparum C235): 58.86 ng/mL
- hERG (% inhibition) [1]: 75%
- W2 (SYBR Green Assay IC50) (P. falciparum W2): 37.5 ng/mL

Compound: CCN(CC)CC(C)Nc1nc(Nc2cc(Cl)cc(Cl)c2)nc(n1)C(Cl)(Cl)Cl [Compound 644]
- D6 (SYBR Green Assay IC50) (P. falciparum D6): 131 ng/mL
- C235 (SYBR Green Assay IC50) (P. falciparum C235): 14 ng/mL
- hERG (% inhibition) [1]: 100%
- W2 (SYBR Green Assay IC50) (P. falciparum W2): 9 ng/mL
